In publication doi:10.1101/2020.10.22.350827v1 (biorxiv, 2020):
Changes are numbered by the printed parent chain.

What was measured:
[1] = target: T1, Nluc-A1R (adenosine A1 receptor) (Homo sapiens, UniProt P30542, L253A); experiment: NanoBRET competition binding, live HEK […] cells; format: cell-based
T1 sequence (P30542 1-326 L253A): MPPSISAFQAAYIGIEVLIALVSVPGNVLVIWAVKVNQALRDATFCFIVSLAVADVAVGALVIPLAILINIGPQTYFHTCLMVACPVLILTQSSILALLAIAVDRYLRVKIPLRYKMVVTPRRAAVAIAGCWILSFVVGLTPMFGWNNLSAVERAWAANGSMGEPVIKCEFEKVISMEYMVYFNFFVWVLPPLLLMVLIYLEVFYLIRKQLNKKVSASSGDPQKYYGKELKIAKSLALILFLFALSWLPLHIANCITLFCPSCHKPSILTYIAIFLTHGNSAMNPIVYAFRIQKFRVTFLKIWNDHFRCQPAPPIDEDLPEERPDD

[2] = target: T2, Nluc-A1R (adenosine A1 receptor) K265A (Homo sapiens, UniProt P30542, K265A); experiment: cell-based; design: species or system HEK 293
T2 sequence (P30542 1-326 K265A): T1 sequence (P30542 1-326 L253A) with A253L, K265A

With `OC[C@H]1O[C@@H](n2cnc3c(N[C@@H]4CCC[C@H]4O)ncnc32)[C@H](O)[C@@H]1O` [compound 6, HOCPA] the Ki [1] was 3240 nM and the Ki [2] was 977 nM.
